Laboratory results: PubChem BioAssay (NCI)
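Tested at 5 concentrations; 48 h exposure; 96-well plates; endpoints linearly interpolated, else capped at highest concentration. The concentration for full growth arrest is given as TGI.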

Columns and labels:
Assay in all cases: inhibition of tumour cell growth, NCI panel, 48 h
[1] = system: U251 CNS
[2] = system: KM20L2 colon
[3] = system: 786-0 renal
[4] = system: MALME-3M melanoma
[5] = system: SNB-75 CNS
[6] = system: SW-620 colon
[7] = system: UO-31 renal
[8] = system: CCRF-CEM leukemia
[9] = system: COLO 205 colon
[10] = system: NCI-H460 lung
[11] = system: LOX IMVI melanoma
[12] = system: OVCAR-5 ovarian
[13] = system: DLD-1 colon
[14] = system: IGROV1 ovarian
[15] = system: DMS 114 small cell lung
[16] = system: SK-OV-3 ovarian
[17] = system: RXF-631 renal
[18] = system: SNB-78 CNS
[19] = system: SF-295 CNS
[20] = system: RPMI-8226 leukemia
[21] = system: UACC-62 melanoma
[22] = system: M14 melanoma
[23] = system: SF-268 CNS
[24] = system: SN12C renal
[25] = system: HOP-92 NSCLC
[26] = system: HCT-15 colon
[27] = system: SK-MEL-2 melanoma
[28] = system: NCI-H522 lung
[29] = system: HL-60(TB) leukemia
[30] = system: A549 NSCLC
[31] = system: NCI-H226 lung
[32] = system: UACC-257 melanoma
[33] = system: HT29 colon
[34] = system: KM12 colon
[35] = system: MOLT-4 leukemia
[36] = system: HCC-2998 colon
[37] = system: OVCAR-3 ovarian
[38] = system: NCI-H23 lung
[39] = system: M19-MEL melanoma
[40] = system: K-562 leukemia
[41] = system: HOP-18 NSCLC
[42] = system: DMS 273 small cell lung
[43] = system: CAKI-1 renal
[44] = system: EKVX NSCLC
[45] = system: SNB-19 CNS
[46] = system: OVCAR-4 ovarian
[47] = system: OVCAR-8 ovarian
[48] = system: A498 renal
[49] = system: SF-539 CNS
[50] = system: SK-MEL-28 melanoma
[51] = system: TK-10 renal
[52] = system: SK-MEL-5 melanoma
[53] = system: LXFL 529 NSCLC
[54] = system: RXF 393 renal
[55] = system: HCT-116 colon
[56] = system: HOP-62 NSCLC
[57] = system: ACHN renal
[58] = system: HS 578T breast
[59] = system: MCF7 breast
[60] = system: PC-3 prostate
[61] = system: BT-549 breast
[62] = system: MDA-N
[63] = system: MDA-MB-435
[64] = system: T-47D breast
[65] = system: DU-145 prostate
[66] = system: SR leukemia
[67] = system: MDA-MB-231 breast
[68] = system: NCI/ADR-RES ovarian
[69] = system: XF 498 CNS

Compound `C#CCN(Cc1ccc2nc(-c3ccccc3)c(Cl)nc2c1)c1cc(OC)c(OC)c(OC)c1` has a TGI [1] greater than 100 µM, a TGI [2] greater than 100 µM and a TGI [3] greater than 100 µM. It also gave a TGI [4] greater than 100 µM, a TGI [5] greater than 100 µM and a TGI [6] of 34.2 µM. It also gave a TGI [7] greater than 100 µM, a TGI [8] greater than 100 µM and a TGI [9] greater than 100 µM. It also gave a TGI [10] greater than 100 µM, a TGI [11] of 40.4 µM and a TGI [12] greater than 100 µM. It also gave a TGI [13] greater than 100 µM, a TGI [14] greater than 100 µM and a TGI [15] of 51.8 µM. The TGI [16] was greater than 100 µM, the TGI [17] was greater than 100 µM and the TGI [18] was greater than 100 µM. The TGI [19] was greater than 100 µM, the TGI [20] was 43.5 µM and the TGI [21] was greater than 100 µM. It also gave a TGI [22] greater than 100 µM, a TGI [23] greater than 100 µM and a TGI [24] greater than 100 µM. For the same compound, the TGI [25] was greater than 100 µM, the TGI [26] was greater than 100 µM and the TGI [27] was greater than 100 µM. It also gave a TGI [28] greater than 100 µM, a TGI [29] greater than 100 µM and a TGI [30] greater than 100 µM. For the same compound, the TGI [31] was greater than 100 µM, the TGI [32] was greater than 100 µM and the TGI [33] was greater than 100 µM. For the same compound, the TGI [34] was greater than 100 µM, the TGI [35] was greater than 100 µM and the TGI [36] was greater than 100 µM. It also gave a TGI [37] greater than 100 µM, a TGI [38] greater than 100 µM and a TGI [39] greater than 100 µM. The TGI [40] was greater than 100 µM, the TGI [41] was greater than 100 µM and the TGI [42] was greater than 100 µM. For the same compound, the TGI [43] was greater than 100 µM, the TGI [44] was greater than 100 µM and the TGI [45] was greater than 100 µM. The TGI [46] was greater than 100 µM, the TGI [47] was greater than 100 µM and the TGI [48] was greater than 100 µM. For the same compound, the TGI [49] was greater than 100 µM, the TGI [50] was greater than 100 µM and the TGI [51] was greater than 100 µM. For the same compound, the TGI [52] was greater than 100 µM, the TGI [53] was greater than 100 µM and the TGI [54] was greater than 100 µM. For the same compound, the TGI [55] was greater than 100 µM, the TGI [56] was greater than 100 µM and the TGI [57] was greater than 100 µM.

For `O=c1oc2ccccc2c(O)c1C(C/C(CCN1CCCC1)=N/O)c1ccccc1` (configuration not stated), the TGI [58] was greater than 100 µM, the TGI [1] was greater than 100 µM and the TGI [2] was greater than 100 µM. The TGI [3] was greater than 100 µM, the TGI [4] was greater than 100 µM and the TGI [5] was greater than 100 µM. For the same compound, the TGI [6] was greater than 100 µM, the TGI [59] was greater than 100 µM and the TGI [7] was greater than 100 µM. For the same compound, the TGI [9] was greater than 100 µM, the TGI [10] was greater than 100 µM and the TGI [11] was greater than 100 µM. For the same compound, the TGI [12] was greater than 100 µM, the TGI [13] was greater than 100 µM and the TGI [14] was greater than 100 µM. It also gave a TGI [15] greater than 100 µM, a TGI [16] greater than 100 µM and a TGI [17] greater than 100 µM. For the same compound, the TGI [60] was greater than 100 µM, the TGI [19] was greater than 100 µM and the TGI [20] was greater than 100 µM. The TGI [21] was greater than 100 µM, the TGI [22] was greater than 100 µM and the TGI [23] was greater than 100 µM. For the same compound, the TGI [24] was greater than 100 µM, the TGI [25] was greater than 100 µM and the TGI [26] was greater than 100 µM. For the same compound, the TGI [61] was greater than 100 µM, the TGI [62] was greater than 100 µM and the TGI [27] was greater than 100 µM. The TGI [28] was greater than 100 µM, the TGI [29] was greater than 31.6 µM and the TGI [30] was greater than 100 µM. It also gave a TGI [31] greater than 100 µM, a TGI [32] greater than 100 µM and a TGI [63] greater than 100 µM. For the same compound, the TGI [33] was greater than 100 µM, the TGI [34] was greater than 100 µM and the TGI [35] was greater than 100 µM. For the same compound, the TGI [64] was greater than 100 µM, the TGI [65] was greater than 100 µM and the TGI [36] was greater than 100 µM. The TGI [66] was greater than 100 µM, the TGI [37] was greater than 100 µM and the TGI [38] was greater than 100 µM. The TGI [39] was greater than 100 µM, the TGI [40] was greater than 31.6 µM and the TGI [43] was greater than 100 µM. For the same compound, the TGI [44] was greater than 100 µM, the TGI [67] was greater than 100 µM and the TGI [45] was greater than 100 µM. The TGI [46] was greater than 100 µM, the TGI [47] was greater than 100 µM and the TGI [48] was greater than 100 µM. The TGI [49] was greater than 100 µM, the TGI [50] was greater than 100 µM and the TGI [68] was greater than 100 µM. It also gave a TGI [51] greater than 100 µM, a TGI [52] greater than 100 µM and a TGI [53] greater than 100 µM. It also gave a TGI [69] greater than 100 µM, a TGI [54] greater than 100 µM and a TGI [55] greater than 100 µM. For the same compound, the TGI [56] was greater than 100 µM and the TGI [57] was greater than 100 µM.

`CCC1(CN(C)C)CC/C(=C\c2ccc(OC)cc2)C1=O` (configuration not stated) was tested, and the TGI [1] was greater than 100 µM, the TGI [2] was greater than 100 µM and the TGI [3] was greater than 100 µM. It also gave a TGI [4] greater than 100 µM, a TGI [5] greater than 100 µM and a TGI [6] greater than 100 µM. For the same compound, the TGI [7] was greater than 100 µM, the TGI [8] was greater than 100 µM and the TGI [9] was greater than 100 µM. For the same compound, the TGI [10] was greater than 100 µM, the TGI [11] was greater than 100 µM and the TGI [12] was greater than 100 µM. For the same compound, the TGI [13] was greater than 100 µM, the TGI [14] was greater than 100 µM and the TGI [15] was greater than 100 µM. For the same compound, the TGI [17] was greater than 100 µM, the TGI [18] was greater than 100 µM and the TGI [19] was greater than 100 µM. For the same compound, the TGI [20] was greater than 100 µM, the TGI [21] was greater than 100 µM and the TGI [22] was greater than 100 µM. The TGI [23] was greater than 100 µM, the TGI [24] was greater than 100 µM and the TGI [25] was greater than 100 µM. For the same compound, the TGI [26] was greater than 100 µM, the TGI [27] was greater than 100 µM and the TGI [28] was greater than 100 µM. It also gave a TGI [30] greater than 100 µM, a TGI [31] greater than 100 µM and a TGI [32] greater than 100 µM. It also gave a TGI [33] greater than 100 µM, a TGI [34] greater than 100 µM and a TGI [35] greater than 100 µM. It also gave a TGI [36] greater than 100 µM, a TGI [37] greater than 100 µM and a TGI [38] greater than 100 µM. For the same compound, the TGI [39] was greater than 100 µM, the TGI [40] was greater than 100 µM and the TGI [41] was greater than 100 µM. The TGI [42] was greater than 100 µM, the TGI [43] was greater than 100 µM and the TGI [44] was greater than 100 µM. The TGI [45] was greater than 100 µM, the TGI [46] was greater than 100 µM and the TGI [47] was greater than 100 µM. It also gave a TGI [48] greater than 100 µM, a TGI [49] greater than 100 µM and a TGI [50] greater than 100 µM. It also gave a TGI [51] greater than 100 µM, a TGI [52] greater than 100 µM and a TGI [53] greater than 100 µM. The TGI [54] was greater than 100 µM, the TGI [55] was greater than 100 µM and the TGI [56] was greater than 100 µM. For the same compound, the TGI [57] was greater than 100 µM.
